Where “and” joins values, the source holds several entries; their conditions need not be identical. Equal entries are not always repeated.
Columns and labels:
H2122 = assay: 5-day Cell Titer Glo combination matrix, Bliss score; assay type: cell-based; settings: H2122 (Lung, Epithelial); FGFR inhibitor in combination with MRTX849; 5 days
Description: (§2) Cells were seeded in RPMI medium with 10% HI FBS at a density of 500 cells/well in Greiner, white, clear bottom, 384-well tissue culture treated plates containing 10×10 combination matrices of compound. Plates were incubated at 37° C., 5% CO2 for 5 days. On day 5, Cell Titer Glo reagent was added to the plates and ATP luminescence was detected using a Pherastar FSX reader. The synergy score for the combination effect was calculated using a Bliss score model where the Bliss score=Yab−(Ya+Yb−(YaYb))×100, where Ya and Yb are the monotherapies. Bliss scores >20 are strongly synergistic and a higher Bliss scores indicates a higher level of synergism.

LU-99 = assay: as above; assay type: cell-based; settings: 5 days
Description: (§3) Cells were seeded in RPMI medium with 10% HI FBS at a density of 500 cells/well in Greiner, white, clear bottom, 384-well tissue culture treated plates containing 10×10 combination matrices of compound. Plates were incubated at 37° C., 5% CO2 for 5 days. On day 5, Cell Titer Glo reagent was added to the plates and ATP luminescence was detected using a Pherastar FSX reader. Synergy score for the combination effect is calculated using a Bliss score model where the Bliss score=Yab−(Ya+Yb−(YaYb))×100, where Ya and Yb are the monotherapies. Bliss scores >20 are strongly synergistic and a higher Bliss scores indicates a higher level of synergism.
as §2

[1] = test system: LU99 lung cancer xenograft; assay: LU99 xenograft model, tumor growth inhibition; assay type: in vivo; settings: NCr nude mice; AMG510 20 mg/kg, pemigatinib 0.3 mg/kg, alone or combined; oral QD, 30 days; last day of treatment
Description: The in vivo effect of combining the FGFR1 inhibitor pemigatinib plus the KRAS G12C inhibitor AMG510 was assessed in the LU99 lung cancer model (JCRB0080, JCRB) xenograft model (FIG. 3) in 6 to 8 week old female NCr nude mice (Taconic). Pemigatinib and AMG510 were suspended in 5% N,N-dimethyl acetamide (DMAC)+50 mM Citrate buffer (pH 3.0) in 0.5% methyl cellulose for oral administration. Briefly, mice were inoculated in the left flank with 1×10^7 LU99 cells re-suspended in a PBS and matrigel (Corning Life Sciences, Tewksbury, Mass) solution at 1:1. On Day 7, mice were randomized into 4 groups of 10 mice at approximate mean volume (˜212 mm^3). […] Tumor growth inhibition was calculated using the formula (1−(VT/VC))×100, where VT is the tumor volume of the treatment group on the last day of treatment, and Vc is the tumor volume of the control group on the last day of treatment. […] Statistics were determined using One-Way ANOVA.
Briefly, mice were inoculated in the left flank with 1×10^7LU99 cells re-suspended in a PBS and matrigel (Corning Life Sciences, Tewksbury, Mass) solution at 1:1. […] TGI was calculated using the formula (1−(VT/VC))×100, where VT is the tumor volume of the treatment group on the last day of treatment, and VC is the tumor volume of the control group on the last day of treatment. […]

H1792 = assay: 5-day Cell Titer Glo combination matrix, Bliss score; assay type: cell-based; settings: H1792 (Lung, Mesenchymal), 5 days
Description: (§4) Cells were seeded in RPMI medium with 10% HI FBS at a density of 500 cells/well in Greiner, white, clear bottom, 384-well tissue culture treated plates containing 10×10 combination matrices of compound. Plates were incubated at 37° C., 5% CO2 for 5 days. On day 5, Cell Titer Glo reagent was added to the plates and ATP luminescence was detected using a Pherastar FSX reader. The synergy score for the combination effect was calculated using a Bliss score model where the Bliss score=Yab-(Ya+Yb−(YaYb))×100, where Ya and Yb are the monotherapies. Bliss scores >20 are strongly synergistic and a higher Bliss scores indicates a higher level of synergism.
as §3, §2

[2] = test system: MiaPaca2 KRAS G12C resistant clone 28; assay: 5-day Cell Titer Glo viability and Bliss score; assay type: cell-based; settings: 5-day CTG
Description: (§1) For G12C resistant clone generation, MiaPaca2 parent cells were cultured with increasing concentrations of AMG510 (up to 1μM) over time. The viable cells were re-fed fresh media containing AMG510 weekly. Once the AMG510 resistant cells were growing at normal rates in the presence of 1μM AMG510, they were cloned by limiting dilution. Eight clones were selected for continued passage and further experiments.

[3] = test system: MiaPaca2 KRAS G12C resistant clone 7; assay: 5-day Cell Titer Glo viability and Bliss score; assay type: cell-based; settings: 5-day CTG; for % viability, Pemi 1 μM: Pemi alone
Description: as §1

[4] = test system: MiaPaca2 KRAS G12C resistant clone 23; assay: 5-day Cell Titer Glo viability and Bliss score; assay type: cell-based; settings: 5-day CTG
Description: as §1

HCC-44 = assay: 5-day Cell Titer Glo combination matrix, Bliss score; assay type: cell-based; settings: HCC44 (Lung, Mesenchymal); FGFR inhibitor in combination with MRTX849; 5 days
Description: as §4, §2

SW-837 = assay: as above; assay type: cell-based; settings: SW837 (CRC, Epithelial); FGFR inhibitor in combination with MRTX849; 5 days
Description: as §4, §2

pFRS2a = assay: Western blot of pFRS2a in LU99 cell lysate (90 hours treatment); assay type: cell-based; settings: LU99 cells
Source text: FGFR1 and downstream activation marker pFRS2a protein levels were examined in indicated cell lines, as well as markers for epithelial-like cells (E-cadherin) and mesenchymal-like cells (Vimentin).

H358 = assay: 5-day Cell Titer Glo combination matrix, Bliss score; assay type: cell-based; settings: H358 (Lung, Epithelial), 5 days
Description: as §4, §3, §2

[5] = FGFR inhibitor in combination with Cmpd 3
[6] = FGFR inhibitor in combination with MRTX849
[7] = Average, G12C i 111 nM + Pemi 1 μM

SMILES: CCN1C(=O)N(c2c(F)c(OC)cc(OC)c2F)Cc2cnc3[nH]c(CN4CCOCC4)cc3c21 [Pemigatinib, 3-(2,6-difluoro-3,5-dimethoxyphenyl)-1-ethyl-8-(morpholin-4-ylmethyl)-1,3,4,7-tetrahydro-2H-pyrrolo[3′,2′:5,6]pyrido[4,3-d]pyrimidin-2-one]
- Avg. Bliss Score (H2122): 4.5
- Avg. Bliss Score (LU-99; LU-99 (Lung, Mesenchymal), FGFR inhibitor in combination with Cmpd 3): 44.8
- Avg. Bliss Score (LU-99; Lu99 (Lung, Mesenchymal), FGFR inhibitor in combination with MRTX849): 37.4
- TGI (tumor growth inhibition) [1]: 63%
- Avg. Bliss Score (H1792; [5]): 24.2
- Avg. Bliss Score (H1792; [6]): 19.9
- % viability, Together ([2]; G12C i 111 nM + Pemi 1 μM): 32.4%
- BLISS Score ([2]; G12C i 111 nM + Pemi 1 μM): 21.8
- % viability, Pemi 1 μM ([2]; Pemi alone): 78%
- % viability, Together [3, 7]: 54.6%
- BLISS Score [3, 7]: 15.0
- % viability, Pemi 1 μM ([3]; Average): 101.1%
- % viability, Together ([3]; G12C i 111 nM + Pemi 1 μM, single experiments): 63% and 53% and 47.7%
- % viability, Pemi 1 μM ([3]; single experiments): 104% and 106% and 93.4%
- % viability, Together ([4]; G12C i 111 nM + Pemi 1 μM): 74.9%
- BLISS Score ([4]; G12C i 111 nM + Pemi 1 μM): 16.1
- % viability, Pemi 1 μM ([4]; Pemi alone): 100.1%
- Avg. Bliss Score (HCC-44): 11.6
- Avg. Bliss Score (SW-837): 6.1
- pFRS2a level, FGFR inhibitor in combination with KRAS inhibitor MRTX849 (pFRS2a; 50 nM MRTX849, pemigatinib 0.5 μM): inhibited the pFRS2a level
- pFRS2a level, FGFR inhibitor in combination with KRAS inhibitors (pFRS2a; with 50 nM AMG510 or Compound 2): inhibited the pFRS2a level
- Avg. Bliss Score (H358; [5]): 1.4
- Avg. Bliss Score (H358; [6]): 3.7
